Patent US20250326744A1, “PIPERAZINE DERIVATIVE OR SALT THEREOF, AND PHARMACEUTICAL COMPOSITION” (priority 2022, published 2025)
Where a name gives a salt, the structure may show the parent alone.

Columns and labels:
[1] = system: S-3769 strain; assay: Combinational effect with antibacterial agent against Pseudomonas aeruginosa (Test Examples 2 and 4): S-3769 strain with AMK or GM at 1/4 MIC, EC99; type: cell-based; conditions: S-3769 strain, Test Example 4; for EC99, combinational effect with AMK, S-3769 strain: combined with AMK at 1/4 MIC; for EC99, combinational effect with GM, S-3769 strain: combined with GM at 1/4 MIC
In short: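 EC99, the lowest test-compound concentration inhibiting growth by ≥99% (OD595), was measured with aminoglycoside AMK or GM held at ¼ MIC. Strain S-3769, a MexY-overexpressing clinical isolate, was cultured in CAMHB at 10^4 to 5 CFU/well for 16–20 h; compound range 0–800 μM.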

[2] = system: mexB (PA) strain; assay: Combinational effect with antibacterial agent against Pseudomonas aeruginosa (Test Examples 2 and 4): mexB (PA) strain with LVFX, TC or AZT at 1/4 MIC, EC99; type: cell-based; conditions: mexB (PA) strain, Test Example 4; for EC99, combinational effect with AZT, mexB (PA): combined with AZT at 1/4 MIC; for EC99, combinational effect with LVFX, mexB (PA): combined with LVFX at 1/4 MIC; for EC99, combinational effect with TC, mexB (PA): combined with TC at 1/4 MIC
In short: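 EC99 denotes the minimum test-compound concentration (range 0–800 μM) that suppresses ≥99% of growth, measured by OD595, when combined with ¼ MIC levofloxacin (LVFX), tetracycline or aztreonam. The efflux-pump mutant mexB (PA), expressing mainly MexAB-OprM, was inoculated at 10^4–5 CFU/well in CAMHB for 16–20 h.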

[3] = system: mexY (EC) strain; assay: Efflux ability inhibition effect on drug efflux pump MexY (Test Examples 1 and 3): proliferation (OD595) of mexY (EC) strain with EM or LVFX at 1/4 MIC, EC75; type: cell-based, Escherichia coli; conditions: for EC75, mexY (EC) strain, EM: combined with EM at 1/4 MIC; for EC75, mexY (EC) strain, LVFX: combined with LVFX at 1/4 MIC
In short: (§1)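 E. coli ΔacrB/ΔtolC strains carrying P. aeruginosa MexAB-OprM or MexXY-OprM were grown in LB for 16 to 20 hours with EM or LVFX at ¼ MIC plus compound (0 to 800 μM). Growth was read as OD595. EC75 is the lowest compound concentration giving ≥75% growth inhibition versus antibiotic alone.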

[4] = system: mexB (EC) strain; assay: Efflux ability inhibition effect on drug efflux pump MexB (Test Examples 1 and 3): proliferation (OD595) of mexB (EC) strain with EM or LVFX at 1/4 MIC, EC75; type: cell-based, Escherichia coli; conditions: for EC75, mexB (EC) strain, EM: combined with EM at 1/4 MIC; for EC75, mexB (EC) strain, LVFX: combined with LVFX at 1/4 MIC
In short: as §1

[5] = Table 53, Test Example 3, same manner as Test Example 1
[6] = Table 51, Test Example 1, 16 to 20 hours culture, OD595

Structure (SMILES) | EC99, combinational effect with AMK, S-3769 strain [1] | EC99, combinational effect with GM, S-3769 strain [1] | EC99, combinational effect with AZT, mexB (PA) [2] | EC99, combinational effect with LVFX, mexB (PA) [2] | EC99, combinational effect with TC, mexB (PA) [2] | EC75, mexY (EC) strain, EM [3, 5] | EC75, mexY (EC) strain, LVFX [3, 5] | EC75, mexB (EC) strain, EM [4, 5] | EC75, mexB (EC) strain, LVFX [4, 5] | EC75, mexY (EC) strain, EM [3, 6] | EC75, mexY (EC) strain, LVFX [3, 6] | EC75, mexB (EC) strain, EM [4, 6] | EC75, mexB (EC) strain, LVFX [4, 6]
COc1cncc(F)c1CN1CCN(C(=O)[C@H](N)C2CCN(CCc3cc(Cl)ccc3-c3ccccc3)CC2)CC1 [Example 514, Hydrobromide of (R)-2-amino-2-(1-(2-(4-chloro-[1,1-biphenyl]-2-yl)ethyl)piperidin-4-yl)-1-(4-((3-fluoro-5-methoxypyridin-4-yl)methyl)piperazin-1-yl)ethan-1-one] | B (25 μM<EC99≤100 μM) | B (25 μM<EC99≤100 μM) | C (100 μM<EC99) | C (100 μM<EC99) | C (100 μM<EC99) | B (25 μM<EC75≤100 μM) | B (25 μM<EC75≤100 μM) | B (25 μM<EC75≤100 μM) | B (25 μM<EC75≤100 μM) | – | – | – | –
N[C@@H](C(=O)N1CCN(C[C@@H]2CCCN2)CC1)C1CCN(CCc2cc(Cl)ccc2-c2ccccc2)CC1 [Example 538, Hydrobromide of (R)-2-amino-2-(1-(2-(4-chloro-[1,1-biphenyl]-2-yl)ethyl)piperidin-4-yl)-1-(4-(((S)-pyrrolidin-2-yl)methyl)piperazin-1-yl)ethan-1-one] | C (100 μM<EC99) | C (100 μM<EC99) | C (100 μM<EC99) | C (100 μM<EC99) | C (100 μM<EC99) | – | A (12.5 μM<EC75≤25 μM) | – | B (25 μM<EC75≤100 μM) | – | – | – | –
CN[C@@H](C(=O)N1CCN(Cc2ccccc2OC)CC1)C1CCN(CCc2ccccc2)CC1 [Example 131, hydrochloride of (R)-1-(4-(2-methoxybenzyl)piperazin-1-yl)-2-(methylamino)-2-(1-phenethylpiperidin-4-yl)ethan-1-one] | – | – | – | – | – | – | – | – | – | B (25 μM<EC75≤100 μM) | B (25 μM<EC75≤100 μM) | B (25 μM<EC75≤100 μM) | B (25 μM<EC75≤100 μM)
COc1ccccc1CN1CCN(C(=O)CN2CCC(NC(=O)c3ccc(O)c(O)c3Cl)CC2)CC1 [Example 418, hydrochloride of 2-chloro-3,4-dihydroxy-N-(1-(2-(4-(2-methoxybenzyl)piperazin-1-yl)-2-oxoethyl)piperidin-4-yl)benzamide] | – | – | – | – | – | – | – | – | – | – | A (12.5 μM<EC75≤25 μM) | B (25 μM<EC75≤100 μM) | B (25 μM<EC75≤100 μM)
COc1ccccc1CN1CCN(C(=O)C(=NN)C2CCN(CCc3ccccc3)CC2)CC1 [Example 301, hydrochloride of 2-hydrazinyliden-1-(4-(2-methoxybenzyl)piperazin-1-yl)-2-(1-phenethylpiperidin-4-yl)ethan-1-one] | – | – | – | – | – | – | – | – | – | B (25 μM<EC75≤100 μM) | B (25 μM<EC75≤100 μM) | B (25 μM<EC75≤100 μM) | B (25 μM<EC75≤100 μM)
COc1ccccc1CN1CCN(C(=O)[C@H](N)C2CCN(CCc3ccsc3)CC2)CC1 [Example 133, hydrochloride of (R)-2-amino-1-(4-(2-methoxybenzyl)piperazin-1-yl)-2-(1-(2-(thiophen-3-yl)ethyl)piperidin-4-yl)ethan-1-one] | – | – | – | – | – | – | – | – | – | B (25 μM<EC75≤100 μM) | B (25 μM<EC75≤100 μM) | – | A (12.5 μM<EC75≤25 μM)
CCOc1cccc(F)c1CN1CCN(C(=O)[C@H](N)C2CCN(CC(F)(F)c3ccccc3)CC2)CC1 [Example 54, Hydrobromide of (R)-2-amino-2-(1-(2,2-difluoro-2-phenylethyl)piperidin-4-yl)-1-(4-(2-ethoxy-6-fluorobenzyl)piperazin-1-yl) ethan-1-one] | – | – | – | – | – | – | – | – | – | B (25 μM<EC75≤100 μM) | B (25 μM<EC75≤100 μM) | B (25 μM<EC75≤100 μM) | B (25 μM<EC75≤100 μM)
N[C@@H](C(=O)N1CCN(Cc2cscn2)CC1)C1CCN(CCc2cc(Cl)ccc2-c2ccccc2)CC1 [Example 13, Hydrobromide of (R)-2-amino-2-(1-(2-(4-chloro-[1,1′-biphenyl]-2-yl)ethyl)piperidin-4-yl)-1-(4-(thiazol-4-ylmethyl)piperazin-1-yl)ethan-1-one] | – | – | – | – | – | – | – | – | – | B (25 μM<EC75≤100 μM) | B (25 μM<EC75≤100 μM) | B (25 μM<EC75≤100 μM) | B (25 μM<EC75≤100 μM)
